Data reported in ChEMBL document CHEMBL5291721, “A preclinical secondary pharmacology resource illuminates target-adverse drug reaction associations of marketed drugs” (Nat Commun, 2023).

Key:
Adenosine receptor A1 = target: T1, Adenosine receptor A1 (Homo sapiens, UniProt P30542)
T1 sequence (P30542 whole entry): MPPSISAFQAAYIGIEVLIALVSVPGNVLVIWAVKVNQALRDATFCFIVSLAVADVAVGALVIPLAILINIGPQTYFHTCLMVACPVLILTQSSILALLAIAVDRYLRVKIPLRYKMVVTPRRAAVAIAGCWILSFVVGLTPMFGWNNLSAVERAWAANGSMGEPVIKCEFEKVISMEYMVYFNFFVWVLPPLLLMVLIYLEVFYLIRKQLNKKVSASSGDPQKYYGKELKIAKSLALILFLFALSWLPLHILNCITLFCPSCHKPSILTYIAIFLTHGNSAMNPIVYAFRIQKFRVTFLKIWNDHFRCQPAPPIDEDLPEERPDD

Adenosine receptor A2a = Adenosine receptor A2a (Homo sapiens, UniProt P29274)
[1] = target: T2, Alpha-2C adrenergic receptor (Homo sapiens, UniProt P18825); assay type: functional
T2 sequence (P18825 whole entry): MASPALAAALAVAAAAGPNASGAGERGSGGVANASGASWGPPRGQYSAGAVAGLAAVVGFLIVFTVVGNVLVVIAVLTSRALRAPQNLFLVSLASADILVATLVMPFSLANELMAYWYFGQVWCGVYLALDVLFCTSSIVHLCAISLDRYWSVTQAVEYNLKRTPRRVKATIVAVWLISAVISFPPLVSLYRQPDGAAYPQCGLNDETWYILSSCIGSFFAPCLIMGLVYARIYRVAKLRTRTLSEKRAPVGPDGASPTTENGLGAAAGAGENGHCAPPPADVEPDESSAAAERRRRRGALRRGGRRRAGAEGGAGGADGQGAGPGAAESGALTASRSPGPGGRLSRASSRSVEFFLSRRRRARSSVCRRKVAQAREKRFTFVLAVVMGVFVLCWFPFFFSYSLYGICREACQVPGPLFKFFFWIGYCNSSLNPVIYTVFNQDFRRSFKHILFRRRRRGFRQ

[2] = target: T3, Type-1 angiotensin II receptor (Homo sapiens, UniProt P30556)
T3 sequence (P30556 whole entry): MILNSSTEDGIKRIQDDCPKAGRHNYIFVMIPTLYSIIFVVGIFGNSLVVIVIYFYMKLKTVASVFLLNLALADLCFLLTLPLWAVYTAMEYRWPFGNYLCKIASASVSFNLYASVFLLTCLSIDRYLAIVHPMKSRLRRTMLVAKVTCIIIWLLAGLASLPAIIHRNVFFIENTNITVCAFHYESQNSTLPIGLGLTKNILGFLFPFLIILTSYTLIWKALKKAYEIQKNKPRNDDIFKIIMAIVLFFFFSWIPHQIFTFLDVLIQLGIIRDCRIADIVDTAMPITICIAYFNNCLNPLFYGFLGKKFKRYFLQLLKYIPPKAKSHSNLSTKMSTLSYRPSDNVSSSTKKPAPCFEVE

[3] = target: T4, Cholecystokinin receptor type A (Homo sapiens, UniProt P32238)
T4 sequence (P32238 whole entry): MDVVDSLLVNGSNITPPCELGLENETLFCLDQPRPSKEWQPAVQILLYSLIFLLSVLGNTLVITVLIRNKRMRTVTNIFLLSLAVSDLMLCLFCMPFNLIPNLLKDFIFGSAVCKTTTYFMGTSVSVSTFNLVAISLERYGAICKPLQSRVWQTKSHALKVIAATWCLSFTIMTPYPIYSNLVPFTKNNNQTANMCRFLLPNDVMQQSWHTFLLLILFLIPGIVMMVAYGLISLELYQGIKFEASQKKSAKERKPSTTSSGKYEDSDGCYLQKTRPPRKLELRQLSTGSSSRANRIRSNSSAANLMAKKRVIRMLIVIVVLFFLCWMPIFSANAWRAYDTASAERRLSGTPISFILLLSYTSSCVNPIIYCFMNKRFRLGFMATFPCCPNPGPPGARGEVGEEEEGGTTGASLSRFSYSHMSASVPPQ

[4] = target: T5, Muscarinic acetylcholine receptor M2 (Homo sapiens, UniProt P08172); assay type: functional, cell-based
T5 sequence (P08172 whole entry): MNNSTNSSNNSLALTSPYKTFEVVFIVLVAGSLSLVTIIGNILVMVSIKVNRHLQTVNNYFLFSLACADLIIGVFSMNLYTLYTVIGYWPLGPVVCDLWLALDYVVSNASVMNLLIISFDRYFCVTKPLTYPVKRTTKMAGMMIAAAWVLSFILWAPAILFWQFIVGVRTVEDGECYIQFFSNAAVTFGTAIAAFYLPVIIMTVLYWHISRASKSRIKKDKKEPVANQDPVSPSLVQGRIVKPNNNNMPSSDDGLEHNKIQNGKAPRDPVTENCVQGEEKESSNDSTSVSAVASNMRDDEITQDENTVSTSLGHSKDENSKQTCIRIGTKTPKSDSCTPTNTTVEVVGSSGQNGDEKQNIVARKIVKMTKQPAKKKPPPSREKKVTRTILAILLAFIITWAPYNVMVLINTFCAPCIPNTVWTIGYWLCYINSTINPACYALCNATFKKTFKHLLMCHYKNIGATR

[5] = target: T5, Muscarinic acetylcholine receptor M2; assay type: functional, cell-based; remark: listed apart in the source
[6] = target: Growth hormone secretagogue receptor type 1 (Homo sapiens, UniProt Q92847)
Melanocortin receptor 3 = Melanocortin receptor 3 (Homo sapiens, UniProt P41968)
[7] = target: Delta-type opioid receptor (Homo sapiens, UniProt P41143)
[8] = target: T6, Equilibrative nucleoside transporter 1 (Homo sapiens, UniProt Q99808)
T6 sequence (Q99808 whole entry): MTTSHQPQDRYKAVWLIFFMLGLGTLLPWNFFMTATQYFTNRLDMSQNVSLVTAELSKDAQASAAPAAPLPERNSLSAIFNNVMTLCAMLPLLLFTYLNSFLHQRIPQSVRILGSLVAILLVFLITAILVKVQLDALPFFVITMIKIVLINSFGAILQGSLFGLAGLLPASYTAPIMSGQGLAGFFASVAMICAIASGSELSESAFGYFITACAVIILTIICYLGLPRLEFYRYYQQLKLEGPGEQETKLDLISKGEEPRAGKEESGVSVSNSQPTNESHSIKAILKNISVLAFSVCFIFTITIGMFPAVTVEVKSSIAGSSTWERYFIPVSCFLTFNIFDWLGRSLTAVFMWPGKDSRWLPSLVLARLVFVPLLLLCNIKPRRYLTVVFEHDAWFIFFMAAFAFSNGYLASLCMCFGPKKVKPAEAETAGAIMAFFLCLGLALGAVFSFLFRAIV

[9] = target: cGMP-inhibited 3',5'-cyclic phosphodiesterase 3A (Homo sapiens, UniProt Q14432); assay type: functional
Note: assay procedure not described here.

Chain of Growth hormone secretagogue receptor type 1 (Q92847 whole entry): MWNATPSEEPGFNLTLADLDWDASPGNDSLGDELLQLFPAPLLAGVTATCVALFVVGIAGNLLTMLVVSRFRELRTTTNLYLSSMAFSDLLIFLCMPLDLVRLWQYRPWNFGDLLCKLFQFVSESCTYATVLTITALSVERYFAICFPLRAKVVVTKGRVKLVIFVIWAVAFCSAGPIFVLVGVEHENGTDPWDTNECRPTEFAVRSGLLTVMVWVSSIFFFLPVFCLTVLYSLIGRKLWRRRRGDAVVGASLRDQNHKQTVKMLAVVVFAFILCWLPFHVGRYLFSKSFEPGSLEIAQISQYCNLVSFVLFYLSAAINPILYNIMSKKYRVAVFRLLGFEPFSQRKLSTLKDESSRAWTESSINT
Chain of Delta-type opioid receptor (P41143 whole entry): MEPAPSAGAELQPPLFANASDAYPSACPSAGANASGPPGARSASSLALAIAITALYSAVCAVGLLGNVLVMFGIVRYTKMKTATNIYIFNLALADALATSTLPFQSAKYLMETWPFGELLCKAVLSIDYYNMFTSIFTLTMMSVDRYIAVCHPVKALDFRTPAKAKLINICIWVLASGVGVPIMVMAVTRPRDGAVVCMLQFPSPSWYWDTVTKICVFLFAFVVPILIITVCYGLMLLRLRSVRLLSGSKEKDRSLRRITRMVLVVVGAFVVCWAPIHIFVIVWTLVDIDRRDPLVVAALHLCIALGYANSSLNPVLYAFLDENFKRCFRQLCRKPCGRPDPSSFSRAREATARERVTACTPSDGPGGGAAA
Chain of cGMP-inhibited 3',5'-cyclic phosphodiesterase 3A (Q14432 whole entry): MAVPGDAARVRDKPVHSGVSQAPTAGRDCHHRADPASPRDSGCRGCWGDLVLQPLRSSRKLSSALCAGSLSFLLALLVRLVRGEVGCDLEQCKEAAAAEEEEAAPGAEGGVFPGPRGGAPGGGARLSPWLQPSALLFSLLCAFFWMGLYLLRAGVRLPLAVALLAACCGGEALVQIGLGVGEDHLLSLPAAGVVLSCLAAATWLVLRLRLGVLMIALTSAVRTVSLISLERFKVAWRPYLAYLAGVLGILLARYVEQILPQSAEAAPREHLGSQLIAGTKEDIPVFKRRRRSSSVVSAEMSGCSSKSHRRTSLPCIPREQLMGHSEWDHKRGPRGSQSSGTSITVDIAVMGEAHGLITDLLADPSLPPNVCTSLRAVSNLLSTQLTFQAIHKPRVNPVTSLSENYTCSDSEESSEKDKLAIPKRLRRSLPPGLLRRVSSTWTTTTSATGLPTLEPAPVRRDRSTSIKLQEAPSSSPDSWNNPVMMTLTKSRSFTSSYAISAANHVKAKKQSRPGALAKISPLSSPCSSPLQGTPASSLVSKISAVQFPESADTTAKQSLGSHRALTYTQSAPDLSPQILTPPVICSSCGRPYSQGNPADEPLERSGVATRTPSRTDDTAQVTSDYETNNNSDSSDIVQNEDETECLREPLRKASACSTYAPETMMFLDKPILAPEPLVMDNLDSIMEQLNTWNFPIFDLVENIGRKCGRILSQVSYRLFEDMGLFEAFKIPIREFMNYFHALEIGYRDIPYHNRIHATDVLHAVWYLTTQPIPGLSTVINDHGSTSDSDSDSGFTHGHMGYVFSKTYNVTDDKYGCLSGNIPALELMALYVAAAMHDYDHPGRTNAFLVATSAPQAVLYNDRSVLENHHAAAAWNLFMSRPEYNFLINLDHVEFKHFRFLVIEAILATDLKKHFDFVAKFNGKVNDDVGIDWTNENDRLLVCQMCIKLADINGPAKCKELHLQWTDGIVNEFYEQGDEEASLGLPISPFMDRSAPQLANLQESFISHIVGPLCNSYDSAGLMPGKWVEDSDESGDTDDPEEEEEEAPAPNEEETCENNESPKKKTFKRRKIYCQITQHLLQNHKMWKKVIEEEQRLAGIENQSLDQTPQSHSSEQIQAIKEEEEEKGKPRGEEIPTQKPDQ
Chain of Adenosine receptor A2a (P29274 whole entry): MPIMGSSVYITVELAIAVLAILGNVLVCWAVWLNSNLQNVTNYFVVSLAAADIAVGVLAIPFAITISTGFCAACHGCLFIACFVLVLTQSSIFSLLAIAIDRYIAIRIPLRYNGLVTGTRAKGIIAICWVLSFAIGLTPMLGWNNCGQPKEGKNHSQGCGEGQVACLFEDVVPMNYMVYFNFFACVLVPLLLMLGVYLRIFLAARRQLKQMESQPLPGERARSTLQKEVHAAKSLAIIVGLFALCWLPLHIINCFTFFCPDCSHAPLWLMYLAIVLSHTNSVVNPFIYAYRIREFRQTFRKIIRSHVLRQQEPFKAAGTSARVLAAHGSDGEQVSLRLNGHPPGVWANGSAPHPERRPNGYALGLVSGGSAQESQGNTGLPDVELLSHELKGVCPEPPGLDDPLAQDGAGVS
Chain of Melanocortin receptor 3 (P41968 whole entry): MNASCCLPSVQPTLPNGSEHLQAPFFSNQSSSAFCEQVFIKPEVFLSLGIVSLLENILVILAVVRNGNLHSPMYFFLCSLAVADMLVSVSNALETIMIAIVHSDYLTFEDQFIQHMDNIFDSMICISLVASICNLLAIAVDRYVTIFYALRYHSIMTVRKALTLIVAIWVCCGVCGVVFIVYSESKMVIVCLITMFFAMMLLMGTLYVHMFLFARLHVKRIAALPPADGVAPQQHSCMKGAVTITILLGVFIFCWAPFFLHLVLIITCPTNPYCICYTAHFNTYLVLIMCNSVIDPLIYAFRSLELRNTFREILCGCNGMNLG

SMILES | AC50 (Adenosine receptor A1) | AC50 (Adenosine receptor A2a) | AC50 [1] | AC50 [2] | AC50 [3] | AC50 [4] | AC50 [5] | AC50 [6] | AC50 (Melanocortin receptor 3) | AC50 [7] | AC50 [8] | AC50 [9]
C=CCc1ccccc1OCC(O)CNC(C)C (stereo not drawn) [ALPRENOLOL] | > 30 µM | > 30 µM | 14.4 µM | > 30 µM | > 30 µM | > 30 µM | > 30 µM | > 30 µM | > 30 µM | > 30 µM | > 30 µM | > 30 µM
CNC(=O)c1ccccc1Sc1ccc2c(/C=C/c3ccccn3)n[nH]c2c1 [AXITINIB] | > 30 µM | > 30 µM | > 30 µM | > 30 µM | > 30 µM | > 30 µM | 4.2 µM | > 30 µM | > 30 µM | > 30 µM | > 30 µM | > 30 µM
CC[C@H]1OC(=O)[C@H](C)[C@@H](O[C@H]2C[C@@](C)(OC)[C@@H](O)[C@H](C)O2)[C@H](C)[C@@H](O[C@@H]2O[C@H](C)C[C@H](N(C)C)[C@H]2O)[C@](C)(O)C[C@@H](C)CN(C)[C@H](C)[C@@H](O)[C@]1(C)O [AZITHROMYCIN] | > 30 µM | > 30 µM | > 10 µM | > 30 µM | > 30 µM | > 10 µM | > 10 µM | > 30 µM | > 30 µM | > 10 µM | > 30 µM | > 30 µM
NCC(CC(=O)O)c1ccc(Cl)cc1 (stereo not drawn) [BACLOFEN] | > 30 µM | > 30 µM | > 30 µM | > 30 µM | > 30 µM | > 30 µM | > 30 µM | > 30 µM | > 30 µM | > 30 µM | > 30 µM | > 30 µM
Cc1ccc(-c2cc(C(F)(F)F)nn2-c2ccc(S(N)(=O)=O)cc2)cc1 [CELECOXIB] | > 10 µM | > 10 µM | > 10 µM | > 10 µM | > 10 µM | > 10 µM | > 10 µM | > 10 µM | > 10 µM | > 30 µM | 24.4 µM | > 30 µM
CN1C(=O)CCS(=O)(=O)C1c1ccc(Cl)cc1 (stereo not drawn) [CHLORMEZANONE] | > 10 µM | > 10 µM | > 30 µM | > 10 µM | > 10 µM | > 10 µM | > 10 µM | > 10 µM | > 10 µM | > 30 µM | > 10 µM | > 30 µM
CN(C)CCC(c1ccc(Cl)cc1)c1ccccn1 (stereo not drawn) [CHLORPHENIRAMINE] | > 30 µM | > 30 µM | > 10 µM | > 30 µM | > 30 µM | > 10 µM | > 10 µM | > 30 µM | > 30 µM | > 10 µM | > 30 µM | > 10 µM
CN(C)/N=N/c1[nH]cnc1C(N)=O [DACARBAZINE] | > 10 µM | > 10 µM | > 10 µM | > 10 µM | > 10 µM | > 10 µM | > 10 µM | > 10 µM | > 10 µM | > 30 µM | > 10 µM | > 30 µM
O=C1Nc2ccc(Cl)cc2[C@@](C#CC2CC2)(C(F)(F)F)O1 [EFAVIRENZ] | > 30 µM | > 30 µM | > 30 µM | 13 µM | > 30 µM | > 10 µM | > 10 µM | > 30 µM | > 30 µM | > 30 µM | > 30 µM | 24 µM
O=C(OCC(O)CO)c1ccccc1Nc1ccnc2cc(Cl)ccc12 (stereo not drawn) [GLAFENINE] | > 30 µM | 23 µM | > 30 µM | > 30 µM | > 30 µM | > 10 µM | > 10 µM | > 30 µM | > 30 µM | > 30 µM | 8.1 µM | > 30 µM
C[C@]12CCC(=O)C=C1CC[C@@H]1[C@@H]2[C@@H](O)C[C@@]2(C)[C@H]1CC[C@]2(O)C(=O)CO [HYDROCORTISONE] | > 30 µM | > 30 µM | > 10 µM | > 30 µM | > 30 µM | > 10 µM | > 10 µM | > 30 µM | > 30 µM | > 30 µM | > 30 µM | > 30 µM
O=P1(NCCCl)OCCCN1CCCl (stereo not drawn) [IFOSFAMIDE] | > 30 µM | > 30 µM | > 30 µM | > 30 µM | > 30 µM | > 30 µM | > 30 µM | > 30 µM | > 30 µM | > 30 µM | > 30 µM | 12 µM
CCC(C)n1ncn(-c2ccc(N3CCN(c4ccc(OCC5COC(Cn6cncn6)(c6ccc(Cl)cc6Cl)O5)cc4)CC3)cc2)c1=O (stereo not drawn) [ITRACONAZOLE] | > 30 µM | > 30 µM | > 30 µM | > 30 µM | > 30 µM | > 30 µM | > 30 µM | > 30 µM | > 30 µM | > 30 µM | > 30 µM | > 30 µM
c1ccc([C@H]2CN3CCSC3=N2)cc1 [LEVAMISOLE] | > 30 µM | > 30 µM | > 30 µM | > 30 µM | > 30 µM | > 30 µM | > 30 µM | > 30 µM | > 30 µM | > 30 µM | > 30 µM | > 30 µM
